Kd data for 1 compound are collected here from PMC9376891 (Nature Communications, 2022).

This assay has as its target Rae1_31-368-Nup98_157-213 heterodimer (Rae1-Nup98 complex) (Homo sapiens, UniProt P52948+P78406). Put plainly: biochemical. It counts as binding.

Chain of Rae1_31-368-Nup98_157-213 heterodimer (Rae1-Nup98 complex) (P78406 31-368 limits assumed): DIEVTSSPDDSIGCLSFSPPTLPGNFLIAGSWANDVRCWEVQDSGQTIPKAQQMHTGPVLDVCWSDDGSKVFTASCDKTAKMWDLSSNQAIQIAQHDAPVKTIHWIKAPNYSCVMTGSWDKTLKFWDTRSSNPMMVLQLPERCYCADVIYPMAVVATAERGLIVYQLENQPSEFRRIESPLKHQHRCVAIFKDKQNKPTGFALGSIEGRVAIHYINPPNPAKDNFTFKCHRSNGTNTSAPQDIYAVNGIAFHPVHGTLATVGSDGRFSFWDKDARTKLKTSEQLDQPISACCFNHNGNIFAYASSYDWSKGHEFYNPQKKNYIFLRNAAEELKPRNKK
Chain of Rae1_31-368-Nup98_157-213 heterodimer (Rae1-Nup98 complex) (P52948 157-213 partner limits assumed): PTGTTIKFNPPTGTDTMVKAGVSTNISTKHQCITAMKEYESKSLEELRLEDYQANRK

What is called Kd is a measure of binding affinity in units of concentration. A high value points to weaker binding. `CSCC[C@H](NC(=O)[C@H](CCC(=O)O)NC(=O)[C@@H](N)CC(=O)O)C(=O)N[C@@H](CC(=O)O)C(=O)N[C@H](C(=O)N[C@@H](Cc1c[nH]cn1)C(=O)N[C@@H](CC(=O)O)C(=O)N1CCC[C@H]1C(=O)N[C@@H](CC(N)=O)C(=O)N[C@@H](CCC(N)=O)C(=O)N[C@@H](CC(C)C)C(=O)N[C@@H](CCCNC(=N)N)C(=O)N[C@@H](Cc1ccc(O)cc1)C(=O)O)[C@@H](C)O` [VSV M NTE] displayed a dissociation constant Kd of 117 µM.
